We go through two compounds from patent US6984655B1, “Photodynamic therapy for selectively closing neovasa in eyeground tissue” (Meiji Seika Kaisha, Ltd., priority 2000, dated 2006).

A word on the LD50: it is the dose at which mortality reaches 50%. Higher therefore signals lower toxicity.

Data set [1] relates to vascular walls of retinal normal vascular vessels and choroidal neovascular vessels (CNV). The experiment in a line: infrared fluorescence fundus angiography after co-injection of ICG and NPe6 (Test Example 5). Type of data set: in vivo, monkeys of the genus Macaca. Particulars: ICG 0.5 mg/kg co-injected with NPe6 0.5 mg/kg.
Description: The 664 nm-laser light as irradiated was irradiated at an irradiance of 0.68 W/cm^2 for 300 second so that the fluence was of 204 J/cm^2.
For data set [2] the test system is unchanged. In words: infrared fluorescence fundus angiography of ICG (790 nm excitation) in monkeys having experimental CNV. The class given is in vivo, monkeys of the genus Macaca. The conditions noted are these: for infrared fluorescence in CNV / infrared fluorescence in retinal normal vascular vessels: ICG 0.5 mg/kg iv.
Description: In these experiments, the time-dependent changes in the concentrations of ICG having distributed and remaining in the vascular walls of the retinal normal vascular vessels and in the vascular walls of the choroidal neovascular vessels (CNV) in the ocular fundus of the monkeys were examined by a process wherein a beam of laser light containing a light of 790 nm-wavelength (as emitted from a semiconductor type laser generator) was used as an excitation light, and wherein the changes in the intensity of the infrared fluorescence emitted from the ICG as excited within said vascular walls were continuously recorded by photographs by means of an infrared light fundus camera apparatus (of modified TCR 50-IA type, manufactured by Topcon Co., Japan) for the infrared fluorescence fundus angiography for diagnosing the ocular fundus, and wherein the photographed images of the fundus were observed visually.
In the same manner as in the above Test Example 1, the neovasculature lesions comprising the experimental choroidal neovascular vessels (CNV) were produced in the ocular fundi of monkeys of the genus Macaca, according to the modified Ryan's method.
An aqueous solution of ICG dissolved in distilled water for the injections at a concentration of 5.0 mg/ml of ICG was intravenously injected at a dose of ICG of 0.5 mg/kg at a vein in the lower limbs of the monkeys having the neovasculature lesions in the retina of the eye.
Immediately after the time of the intravenous injection of ICG, the ocular fundi of the monkeys were continuously observed under irradiation of the beam of laser light containing a light of 790 nm-wavelength by means of an infrared light camera apparatus (of a modified TCR 50-IA type, manufactured by Topcon Co.) for infrared fluorescence fundus the angiography for diagnosing the ocular fundus.
To these test monkeys was intravenously injected ICG at a dose of 1 mg/kg in the same way as in Test Example 3. Immediately after the time of the intravenous injection of ICG, the ocular fundi of the monkeys were continuously observed by means of an infrared light fundus camera apparatus (of modified TCR 50 type, manufactured by Topcon Co., Ltd.) for the infrared fluorescence fundus angiography for diagnosing the ocular fundus. The observation with the fundus camera was made under irradiation of the ocular fundi with the laser light containing a light of 790 nm-wavelength. There was recorded the time point at which the infrared fluorescence of ICG was eliminated entirely from the retinal normal vascular vessels.
Data set [3] relates to ocular fundus tissue with choroidal neovascular vessels (CNV). The experiment in a line: fluorescence microscopy of cross-section samples of enucleated eyeballs. Type of data set: in vivo, monkeys of the genus Macaca. Particulars: 20 mg/kg iv, eyeballs enucleated 65 to 70 minutes after injection, excitation 380 to 420 nm. How it is done: These cut pieces of the eyeballs were frozen in a bath of liquid nitrogen. Cross-section samples each having a thickness of 5 μm were prepared from the ocular fundus tissue region of the frozen pieces of the eyeballs.

In data set [4] the test system is experimental choroidal neovascular vessels (CNV). The conditions noted are these: optical microscope, pathological examination.
Description: In the experiments of this Test Example 2, there were used 31 neovasculature lesions chosen from among the neovasculature lesions which comprised the experimental choroidal neovascular vessels (CNV) as produced in the ocular fundi of the monkeys of the genus Macaca by the modified Ryan's method set out in the Test Example 1 above.
The 664 nm-laser light was irradiated for 300 seconds at a fluence of 204 J/cm^2.
The laser light was irradiated for 60 to 300 seconds at different fluences.
The 664 nm-laser light was irradiated at different fluences for 60 seconds or for 10 seconds. […]
After the treatment with the irradiation of 664 nm-laser light was terminated, the test monkeys having the neovasculature lesions, either treated or untreated, were fed for 1 week under routine feeding conditions. After the feeding for one week, the effects of the above treatments were judged by a fluorescence fundus angiography with fluorescein and by a fluorescence fundus angiography with indocyanine green (ICG). […] For the fluorescence fundus angiography with ICG, the ocular fundi of the monkeys were observed and diagnosed by means of SLO or by means of an infrared light fundus camera apparatus for the infrared ocular fundus angiography, after the intravenous injection of ICG. […]
In another data set the test system is CD-1 (male) mice. In words: acute toxicity test (LD50). The class given is in vivo.
In data set [5] the test system is vascular walls of retinal normal vascular vessels and choroidal neovascular vessels (CNV). In words: fluorescence fundus angiography of NPe6 red fluorescence (488 nm excitation) in monkeys having experimental CNV. Type of data set: in vivo, monkeys of the genus Macaca. Particulars: for time point at which red fluorescence was substantially entirely eliminated from retinal normal vascular vessels while CNV lesions continued to emit: Test Example 2. The text has this: The detailed procedures of the above experiments are as follows. Thus, a beam of a laser light of 647 nm wavelenght as emitted from a krypton laser generator [Coherent Medical Laser generator, manufactured by Novua Omni Co.; having an output of 500 to 900 mW] was irradiated as a laser-irradiating spot of a diameter of 50 μm onto the ocular fundi of 8 mature monkeys of the genus Macaca (of body weights of 3.5 kg to 6.0 kg) for 0.1 seconds, according to a modification of the Ryan's method [Arch. Ophthalmol., vol 100; pp. 1804–1809 (1982)]. It is said that the resulting damage in the Bruch's membrane, which were incurred by the irradiation of the 647 nm laser light, is very effective for the incidence of ocular neovascular vessels. Thereby, there were induced the experimental choroidal neovascular vessels (abbreviated as CNV). The induced CNV are the neovascular vessels as branched from the choroidal normal vascular vessels in the ocular fundus. Such CNV have infiltrated in the subretinal space, namely the space between the sensory retina and choroids, to involve the occurrence of exudation, bleeding and retinal detachment. The formation of the neovasculature lesions comprising the CNV was confirmed by a process which comprised intravenously injecting fluorescein or indocyanine green to the so treated monkeys and subsequently carrying out the diagnosis method according to a fluorescence fundus angiography of the ocular fundus.
In the course of said irradiation of 488 nm laser light beam for 10 minutes, the images of the red fluorescence as emitted in the ocular fundus were recorded by photography on a video tape by means of a high-sensitivity television fundus camera apparatus. Thereafter, at intervals of 10 minutes, a beam of 488 nm laser light was repeatedly irradiated to the ocular fundus each for about one minute. At each of the irradiations of the 488 nm laser light beam, the images of the red fluorescence emitted from the vascular vessels of the ocular fundus were recorded on the video tape. […] The images of the fluorescence emitted from the ocular fundus vascular vessels were then reproduced from the recording video tape for the purpose of observation.
During this 10 minutes-irradiation of the 488 nm-laser light to the ocular fundi, the images of the red fluorescence emitted from the ocular fundi were recorded by photography on a video tape by means of a high-sensitivity television fundus camera.
During this irradiation of the 488 nm-laser light, the images of the red fluorescences emitted from the retinal normal vascular vessels and from the choroidal neovascular vessels were observed by an apparatus for the fluorescence ocular fundus angiography of the ocular fundus (namely, an infrared light fundus camera).

Data set [6] deals with experimental choroidal neovascular vessels (CNV). In words: PDT with NPe6 timed by prior ICG angiography (Test Example 4).
Protocol: To these test monkeys was intravenously injected ICG at a dose of 1 mg/kg in the same way as in Test Example 3. Immediately after the time of the intravenous injection of ICG, the ocular fundi of the monkeys were continuously observed by means of an infrared light fundus camera apparatus (of modified TCR 50 type, manufactured by Topcon Co., Ltd.) for the infrared fluorescence fundus angiography for diagnosing the ocular fundus. The observation with the fundus camera was made under irradiation of the ocular fundi with the laser light containing a light of 790 nm-wavelength. There was recorded the time point at which the infrared fluorescence of ICG was eliminated entirely from the retinal normal vascular vessels. The time-gap which was extended between the aforesaid time point as recorded for the entire elimination of the infrared fluorescence of IGC and the time of the intravenous injection of ICG was calculated in a unit of “minutes” or “second”, whereby it was estimated that said time-gap was 30 minutes. • (b) Time was allowed to pass until the infrared fluorescence of ICG was eliminated entirely from the neovasculature lesions in the ocular fundi of the test monkeys. […] The 664 nm-laser light as irradiated was irradiated at an irradiance of 0.57 W/cm2 for 180 seconds so that the fluence was of 102.6 J/cm^2. […]
Where [7] appears, read: about 7 to 8 minutes after injection.
The mark [8] stands for this setting: 20 minutes after administration.
The mark [9] stands for this setting: 0.5 mg/kg iv, 20 minutes after injection.
The mark [10] stands for this setting: 1.0 mg/kg iv, 30 minutes after injection.
Setting [11] is: 20 mg/kg iv, 7.5 minutes after injection.
Setting [12] is: 20 mg/kg iv, 20 minutes after injection.
[13] abbreviates: 20 mg/kg iv, 60 minutes after injection.

As to `CC1(C)C(/C=C/C=C/C=C/C=C2\N(CCCCS(=O)(=O)O)c3ccc4ccccc4c3C2(C)C)=[N+](CCCCS(=O)(=O)[O-])c2ccc3ccccc3c21` [ICG, indocyanine green], in data set [1] (20 minutes after injection), the “infrared fluorescence of ICG in retinal normal vascular vessels” value is “decreased to a poor intensity”; the “infrared fluorescence of ICG in vascular walls of CNV” value was “retained at a prominent and apreciable intensity”. Besides, in data set [1] (setting [7]), the “infrared fluorescence of ICG in retinal normal vascular vessels” value was “observed at a prominent and appreciable intensity”. Also, in data set [2] (setting [8]), the “infrared fluorescence in CNV” value was “increased to a prominent and appreciable intensity”; the “infrared fluorescence in retinal normal vascular vessels” value is “had decreased”. Besides, in data set [2] (setting [7]), the “infrared fluorescence in CNV” value is recorded as “a slight but appreciable intensity”; the “infrared fluorescence in retinal normal vascular vessels” value is “observed at a prominent and appreciable intensity”. In addition, in data set [2] (ICG 1 mg/kg iv), the “time-gap between intravenous injection and entire elimination of infrared fluorescence from retinal normal vascular vessels” value is 30 min.

For `C=Cc1c(C)c2cc3nc(c(CC(=O)N[C@@H](CC(=O)[O-])C(=O)[O-])c4[nH]c(cc5nc(cc1[nH]2)C(C)=C5CC)c(C)c4C(=O)[O-])[C@@H](CCC(=O)[O-])[C@@H]3C.[Na+].[Na+].[Na+].[Na+]` [NPe6, mono-L-aspartyl chlorin e6 tetra-sodium salt], the “red fluorescence at CNV in cross-section samples” value in data set [3] is “observed confirmably at a significant intensity”. In addition, the “red fluorescence at retinal normal vascular vessels in cross-section samples” value in data set [3] was “only a very slight degree of the red fluorescence”. For the same compound, in data set [3], the “red fluorescence in cross-section samples of retinal parenchymal region” value is given as “almost not observable”. Besides, the “state of retinal and choroidal normal vascular vessels adjacent to the occluded CNV” value in data set [4] was “remaining intact or nearly intact”. Also, the LD50 in the data set with CD-1 (male) mice stood at 164 mg/kg. Also, the “red fluorescence in CNV” value in data set [5] (setting [9]) is “confirmably observed at a slight but appreciable intensity”; in data set [5] (setting [10]), “confirmed at a significant and appreciable intensity”; in data set [5] (setting [12]), “remain at a higher and prominently observable intensity”; in data set [5] (setting [13]), “observed at a high and prominent intensity”. Besides, the “red fluorescence in retinal normal vascular vessels” value in data set [5] (setting [9]) was “substantially entirely been eliminated and disappeared”; in data set [5] (setting [10]), “substantially entirely been eliminated”; in data set [5] (setting [12]) it was “decreased to a lower and hardly detectable intensity”; in data set [5] (setting [13]), “never observable”. Moreover, the “time point at which red fluorescence was substantially entirely eliminated from retinal normal vascular vessels while CNV lesions continued to emit” value in data set [5] (0.5 mg/kg iv) came out at 20 min; in data set [5] (1 mg/kg iv) it was 30 min; in data set [5] (2 mg/kg iv), 60 min; in data set [5] (10 mg/kg iv), 60 min. Moreover, the “red fluorescence in vascular walls of CNV” value in data set [5] (setting [11]) is recorded as “observable slightly but detectable at its weak intensity”. Also, in data set [5] (setting [11]), the “red fluorescence in vascular walls of retinal normal vascular vessels” value is given as “appreciably observable at its prominent intensity”. Besides, the “time of peak NPe6 concentration in vascular walls of CNV after intravenous injection” value in data set [5] (monkeys with experimental CNV) is “about 20 minutes”. In addition, in data set [5] (monkeys, intravenous), the “permeation into normal parenchymal tissue of the ocular retina” value is “never permeate”. Moreover, in data set [6] (NPe6 1 mg/kg iv after ICG cleared, irradiation started 30 min, 0.57 W/cm2, 180 s, 102.6 J/cm^2, 3 lesions treated, judged after one week), the “number of treated neovasculature lesions whose CNV were successfully occluded” value was 3. Also, the “state of adjacent retinal normal vascular vessels, retinal parenchymal tissue and choroidal normal vascular vessels” value in data set [6] (NPe6 1 mg/kg iv, 664 nm-laser 102.6 J/cm^2, judged after one week) is reported as “could remain intact”.
